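Method: 48-hour compound exposure of cells in 96-well plates, five concentrations, linear interpolation of endpoints. TGI is the concentration that stops growth completely.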
What was measured:
Experiment in all cases: NCI tumour cell line growth inhibition, 48 h
786-0 renal = tested on: 786-0 renal
A498 renal = tested on: A498 renal
A549 NSCLC = tested on: A549 NSCLC
ACHN renal = tested on: ACHN renal
BT-549 breast = tested on: BT-549 breast
CAKI-1 renal = tested on: CAKI-1 renal
CCRF-CEM leukemia = tested on: CCRF-CEM leukemia
COLO 205 colon = tested on: COLO 205 colon
DU-145 prostate = tested on: DU-145 prostate
EKVX NSCLC = tested on: EKVX NSCLC
HCC-2998 colon = tested on: HCC-2998 colon
HCT-116 colon = tested on: HCT-116 colon
HCT-15 colon = tested on: HCT-15 colon
HL-60(TB) leukemia = tested on: HL-60(TB) leukemia
HOP-92 NSCLC = tested on: HOP-92 NSCLC
HS 578T breast = tested on: HS 578T breast
HT29 colon = tested on: HT29 colon
IGROV1 ovarian = tested on: IGROV1 ovarian
K-562 leukemia = tested on: K-562 leukemia
KM12 colon = tested on: KM12 colon
LOX IMVI melanoma = tested on: LOX IMVI melanoma
M14 melanoma = tested on: M14 melanoma
MALME-3M melanoma = tested on: MALME-3M melanoma
MCF7 breast = tested on: MCF7 breast
MDA-MB-231 breast = tested on: MDA-MB-231 breast
MDA-MB-435 = tested on: MDA-MB-435
MDA-N = tested on: MDA-N
MOLT-4 leukemia = tested on: MOLT-4 leukemia
NCI-H226 lung = tested on: NCI-H226 lung
NCI-H23 lung = tested on: NCI-H23 lung
NCI-H460 lung = tested on: NCI-H460 lung
NCI-H522 lung = tested on: NCI-H522 lung
NCI/ADR-RES ovarian = tested on: NCI/ADR-RES ovarian
OVCAR-4 ovarian = tested on: OVCAR-4 ovarian
OVCAR-5 ovarian = tested on: OVCAR-5 ovarian
OVCAR-8 ovarian = tested on: OVCAR-8 ovarian
PC-3 prostate = tested on: PC-3 prostate
RPMI-8226 leukemia = tested on: RPMI-8226 leukemia
RXF 393 renal = tested on: RXF 393 renal
SF-268 CNS = tested on: SF-268 CNS
SF-539 CNS = tested on: SF-539 CNS
SK-MEL-2 melanoma = tested on: SK-MEL-2 melanoma
SK-MEL-28 melanoma = tested on: SK-MEL-28 melanoma
SK-MEL-5 melanoma = tested on: SK-MEL-5 melanoma
SN12C renal = tested on: SN12C renal
SNB-19 CNS = tested on: SNB-19 CNS
SNB-75 CNS = tested on: SNB-75 CNS
SR leukemia = tested on: SR leukemia
SW-620 colon = tested on: SW-620 colon
T-47D breast = tested on: T-47D breast
TK-10 renal = tested on: TK-10 renal
U251 CNS = tested on: U251 CNS
UACC-257 melanoma = tested on: UACC-257 melanoma
UACC-62 melanoma = tested on: UACC-62 melanoma
UO-31 renal = tested on: UO-31 renal
HOP-62 NSCLC = tested on: HOP-62 NSCLC
OVCAR-3 ovarian = tested on: OVCAR-3 ovarian
SF-295 CNS = tested on: SF-295 CNS
SK-OV-3 ovarian = tested on: SK-OV-3 ovarian

Cc1ccc(S(=O)(=O)/N=C(\[O-])C2=C(c3ccccc3)NN(C)c3nc4cccc[n+]4nc32)cc1
TGI (786-0 renal): > 100 µM | TGI (A498 renal): > 100 µM | TGI (A549 NSCLC): > 100 µM | TGI (ACHN renal): > 100 µM | TGI (BT-549 breast): > 100 µM | TGI (CAKI-1 renal): > 100 µM | TGI (CCRF-CEM leukemia): > 100 µM | TGI (COLO 205 colon): 53.3 µM | TGI (DU-145 prostate): > 100 µM | TGI (EKVX NSCLC): > 100 µM | TGI (HCC-2998 colon): > 100 µM | TGI (HCT-116 colon): > 100 µM | TGI (HCT-15 colon): > 100 µM | TGI (HL-60(TB) leukemia): > 100 µM | TGI (HOP-92 NSCLC): 81.9 µM | TGI (HS 578T breast): > 100 µM | TGI (HT29 colon): > 100 µM | TGI (IGROV1 ovarian): > 100 µM | TGI (K-562 leukemia): > 100 µM | TGI (KM12 colon): > 100 µM | TGI (LOX IMVI melanoma): > 100 µM | TGI (M14 melanoma): > 100 µM | TGI (MALME-3M melanoma): > 100 µM | TGI (MCF7 breast): > 100 µM | TGI (MDA-MB-231 breast): > 100 µM | TGI (MDA-MB-435): > 100 µM | TGI (MDA-N): > 100 µM | TGI (MOLT-4 leukemia): > 100 µM | TGI (NCI-H226 lung): > 100 µM | TGI (NCI-H23 lung): > 100 µM | TGI (NCI-H460 lung): > 100 µM | TGI (NCI-H522 lung): > 100 µM | TGI (NCI/ADR-RES ovarian): > 100 µM | TGI (OVCAR-4 ovarian): > 100 µM | TGI (OVCAR-5 ovarian): > 100 µM | TGI (OVCAR-8 ovarian): > 100 µM | TGI (PC-3 prostate): > 100 µM | TGI (RPMI-8226 leukemia): > 100 µM | TGI (RXF 393 renal): > 100 µM | TGI (SF-268 CNS): > 100 µM | TGI (SF-539 CNS): > 100 µM | TGI (SK-MEL-2 melanoma): > 100 µM | TGI (SK-MEL-28 melanoma): > 100 µM | TGI (SK-MEL-5 melanoma): > 100 µM | TGI (SN12C renal): > 100 µM | TGI (SNB-19 CNS): > 100 µM | TGI (SNB-75 CNS): > 100 µM | TGI (SR leukemia): > 100 µM | TGI (SW-620 colon): > 100 µM | TGI (T-47D breast): > 100 µM | TGI (TK-10 renal): > 100 µM | TGI (U251 CNS): > 100 µM | TGI (UACC-257 melanoma): > 100 µM | TGI (UACC-62 melanoma): > 100 µM | TGI (UO-31 renal): > 100 µM

O=C(N/N=C\c1ccc([N+](=O)[O-])cc1)Nc1cccc2ccccc12
TGI (786-0 renal): 29.1 µM | TGI (A498 renal): 40.9 µM | TGI (A549 NSCLC): > 100 µM | TGI (ACHN renal): > 100 µM | TGI (BT-549 breast): 23.4 µM | TGI (CAKI-1 renal): 33.1 µM | TGI (CCRF-CEM leukemia): > 100 µM | TGI (COLO 205 colon): > 100 µM | TGI (DU-145 prostate): > 100 µM | TGI (EKVX NSCLC): > 100 µM | TGI (HCC-2998 colon): > 100 µM | TGI (HCT-116 colon): > 52.2 µM | TGI (HCT-15 colon): > 100 µM | TGI (HL-60(TB) leukemia): > 31.6 µM | TGI (HOP-62 NSCLC): 22.5 µM | TGI (HOP-92 NSCLC): 16.7 µM | TGI (HS 578T breast): 32 µM | TGI (HT29 colon): > 100 µM | TGI (IGROV1 ovarian): > 100 µM | TGI (K-562 leukemia): > 100 µM | TGI (KM12 colon): > 100 µM | TGI (LOX IMVI melanoma): > 62.2 µM | TGI (M14 melanoma): > 100 µM | TGI (MALME-3M melanoma): > 82.5 µM | TGI (MCF7 breast): > 80.9 µM | TGI (MDA-MB-231 breast): 33.7 µM | TGI (MDA-MB-435): > 100 µM | TGI (MDA-N): > 100 µM | TGI (MOLT-4 leukemia): > 100 µM | TGI (NCI-H226 lung): 61 µM | TGI (NCI-H23 lung): 61.9 µM | TGI (NCI-H460 lung): > 51.9 µM | TGI (NCI-H522 lung): > 100 µM | TGI (NCI/ADR-RES ovarian): > 100 µM | TGI (OVCAR-3 ovarian): > 100 µM | TGI (OVCAR-4 ovarian): > 100 µM | TGI (OVCAR-5 ovarian): > 100 µM | TGI (OVCAR-8 ovarian): 34.7 µM | TGI (PC-3 prostate): > 71.4 µM | TGI (RPMI-8226 leukemia): > 100 µM | TGI (RXF 393 renal): 34.5 µM | TGI (SF-268 CNS): > 55.5 µM | TGI (SF-295 CNS): 22.6 µM | TGI (SF-539 CNS): 33 µM | TGI (SK-MEL-2 melanoma): 23.9 µM | TGI (SK-MEL-28 melanoma): > 100 µM | TGI (SK-MEL-5 melanoma): > 100 µM | TGI (SK-OV-3 ovarian): 39 µM | TGI (SN12C renal): > 100 µM | TGI (SNB-19 CNS): 29.4 µM | TGI (SNB-75 CNS): > 28.8 µM | TGI (SR leukemia): > 100 µM | TGI (SW-620 colon): > 100 µM | TGI (T-47D breast): > 47.6 µM | TGI (TK-10 renal): 63.6 µM | TGI (U251 CNS): 23.6 µM | TGI (UACC-257 melanoma): > 100 µM | TGI (UACC-62 melanoma): > 49.8 µM | TGI (UO-31 renal): > 79.8 µM
